Experimental data: patent US10918891B2, “Cosmetic treatment method for the skin” (SYNTIVIA, priority 2016, dated 2021)
Marks after values point to notes of the source that are not given here.

Assays:
[1] = system: normal human Fibroblasts (NHDF); assay: Cellular viability test with cadmium on NHDF; assay type: cell-based; settings: pretreatment 24 h and treatment 24 h with (Ia) 10 ppm, Cd 3 ppm, read at 450 nm, CTL (Cd 3 ppm) 0.95
Experimental: The cells used for this example are normal human Fibroblasts (NHDF).
A cellular viability test with cadmium is carried out in order to know the protective effect of the compound (Ia) against polluting stress. Cadmium (Cd) is a toxic and ecotoxic heavy metal found in the environment.
The cells are cultured at the concentration of 7000 cells per well of 96-well plates.
The pretreatment is carried out 24 hours after the inoculation of the cells with the compound (Ia) at 10 ppm in an aqueous solution with 0.1% dimethylsulfoxide, or without compound (Ia) for 24 hours.
After the pretreatment, a treatment with cadmium is carried out. The cells are placed in the presence of cadmium at 3 ppm+compound (Ia) at 10 ppm, or only in the presence of cadmium at 3 ppm (CTL) for 24 hours at 37° C., 5% CO2. The control without stress (CTL without stress) corresponds to the cells not having undergone a treatment with cadmium.

MMP-3 = assay: Gene expression of MMP-3 by quantitative RT-PCR in NHEK; assay type: cell-based, human; settings: (Ia) 3 ppm (10^−5M), 24 hours
Experimental: In these examples, the expression of the messenger RNA is measured by the technique of quantitative RT-PCR (reverse transcription followed by polymerase chain reaction), after incubation in vitro of the various cell types in the absence or in the presence of compound (Ia).
This study was carried out on normal human dermal Fibroblasts (NHDF) or normal human epidermal Keratinocytes (NHEK). The compound (Ia) is tested at 10^−5M in an aqueous solution with 0.1% dimethylsulfoxide.
The cells are cultured at the concentration of 10,000 cells per well of 96-well plates, in the presence of standard culture medium according to the cell type.
The compound (Ia) is then added at the concentration (3 ppm), for 24 hours.
The supernatant is eliminated and the cells are taken up in a specific buffer for the extraction of the messenger RNA (mRNA). The mRNA is purified and reverse transcribed in the presence of a commercial reverse transcriptase.
The complementary DNA (cDNA) obtained is quantified by RT-PCR, by means of suitable primers. The rate of expression of the mRNA is normalised with 5 reference genes.
The cells used for this example are normal human keratinocytes (NHEK).

NHDF cells = assay: Cellular viability (WST1) of NHDF exposed to cigarette extract; assay type: cell-based, human; settings: (Ia) 10 ppm pretreatment 24 h and treatment 24 h; cigarette extract diluted 1/50; WST1, 450 nm; Control 1.618, Cigarette extract 1.357
Experimental: (§1) The cells used for this example are normal human Fibroblasts (NHDF) and normal human epidermal Keratinocytes (NHEK).
A cigarette extract is prepared using a laboratory device allowing the sucking up of cigarette smoke via a suction system, and the controlled bubbling of this cigarette smoke into the solution studied, which is then filtered on a 0.22 μm filter made of Polyether sulfone (PES).
The cells are cultured at the concentration of 7000 cells per well of 96-well plates (NHDF) or 8000 cells per well (NHEK), in the presence of standard culture medium for NHDF or NHEK (for 24 h 37° C., 5% CO2).
After pretreatment of the cells with the compound (Ia) at 10 ppm for 24 h the cells are treated with the cigarette extract diluted to 1/50th in the culture medium with or without the compound (Ia) at 10 ppm for 24 h. The absorbance is read a first time at […] (Multiskan®).
Then, 10 μl of WST1 (Roche) are introduced into the medium and the cells are incubated for 3 hours.
The absorbance at 450 nm is measured after the addition of WST1 (Multiskan®) and the results obtained, in terms of cellular viability, are shown in tables 11 and 12 below. The treated cells (Cigarette extract+(Ia)) are compared to the untreated cells (Control) or to the cells having only undergone exposure to the cigarette extract (Cigarette extract).

NHEK cells = assay: DNA double-strand breaks (γ-H2AX) induced by cigarette extract in NHEK; assay type: cell-based, human; settings: (Ia) 10 ppm pretreatment 24 h and treatment 24 h, cigarette extract 1/50, Control 10346, Cigarette extract 13269
Experimental: as §1
The cells are cultured at the concentration of 3000 cells per well of 96-well plates in the presence of standard culture medium for NHDF or NHEK (for 24 hours, 37° C., 5% CO2).
After pretreatment of the cells with the compound (Ia) at 10 ppm for 24 hours, the cells are treated with the cigarette extract diluted to 1/50° with or without compound (Ia) at 10 ppm for 24 hours. […].
After washing, the samples are then placed in the presence of DAPI for 10 min in order to mark the nuclei, then rinsed once again. The marked proteins are observed and quantified with an automated fluorescence microscope (ArrayScan® (Cellomics®)). The cells treated by the compound (Ia) are then compared to the untreated cells or to the cells only exposed to the cigarette extract.

[2] = system: NativeSkin® skin explants (Genoskin); assay: Histological analysis (haematoxylin/eosin) of NativeSkin skin explant ex vivo after UVA irradiation; assay type: cell-based, human; settings: composition 0.9 mmol/L topical, 60 J/cm^2 UVA every day for 3 days, FIG. 5
Experimental: The test was carried out on NativeSkin® skin explants (Genoskin), a biopsy of skin bathed in a solid, nourishing matrix while its epidermal surface is preserved in contact with the air. The biopsy is firmly anchored in the matrix and sealed in order to prevent any lateral diffusion of formulation intended for topical application.
The study was carried out on a donor (phototype 2) under the following conditions.
The compounds tested are implemented in a composition containing them at 0.9 mmol/L in a mixture of Carbopol® (0.5% p/p), DMSO (0.1% p/p) and H2O (qsp 100%).
The samples are irradiated at 60 J/cm^2 UVA every day for 3 days. A treatment is carried out for 24 h before the irradiation, by application of the composition tested onto the sample (deposition of 40 μl of composition onto the stratum corneum), then a post-treatment of 24 h after the irradiation, in the same manner.
A Control of the sample of skin non-irradiated and a Control of the sample of skin irradiated are also carried out, both with application of the vehicle alone (0.5% Carbopol®, 0.1% DMSO, H2O). The Control of the non-irradiated sample of skin is introduced into the irradiator in a sheet of aluminium, in such a way as to protect it against UVs.
The samples are sampled, cut (according to the conventional method of cryo-sectioning implementing paraffin and freezing) and fixed in 1 ml of formalin for 24 h.
The explants are then included in paraffin and sections of 5 μm are made.
The slides are then coloured with haematoxylin (basic compound marking the nuclei) and eosin (acidic compound marking the conjunctive tissue).
The analysis of the marking is carried out with a DM5000B fluorescence microscope (Leica Microsystems) and 10 images are acquired for each sample.

In the case of `Cc1ncc(CO)c(CNC(=O)/C=C/c2ccc(O)c(O)c2)c1O` [Compound (Ia)], the “Cellular viability during the exposure or non-exposure to cadmium (optical density)” value [1] is reported as 1.28 optical density, the “Reduction of the gene expression compared to the basal level based on 100% (MMP-3)” value (MMP-3) is reported as −50% and the “Cellular viability on NHDF (Optical density)” value (NHDF cells) is reported as 1.674 Optical density. For the same compound, the “Double-strand breaks of the DNA for NHEK (AU)” value (NHEK cells) was 11193* AU and the “Morphology of the epidermis after UVA irradiation (histological analysis)” value [2] was “totally protected”.
